Measurements: patent publication US7074190B2, “Non-invasive apparatus system for monitoring drug hepatoxicity and uses thereof” (priority 2002, dated 2006)

Tested on: adult dogs
Assay: Artery blood pressure waveform analysis before and after taking the drug, dog experiment
Assay type: in vivo
[1] = Code A dog, 500 mg/kg oral, before and after taking the drug (12 hours)
[2] = Code B dog, 1,200 mg/kg subcutaneous injection, 12 hours after taking the drug
[3] = Code B dog, 1,200 mg/kg subcutaneous injection, before and after taking the drug (12 hours)

Experimental: Two adult dogs weighing 12 and 15 kg were used. One (coded A) of them received 500 mg/kg of body weight of acetaminophen oral solution (dissolved in water); and the other one (coded B) received a higher concentration (1,200 mg/kg of body weight) of acetaminophen via subcutaneous injection. After Nembutal was injected and the respirator was put on, the hair on the front legs of the dogs was shaved and a blood pressure waveform sensor was inserted by operation. The waveform of artery blood pressure waveform on brachial position was continuously recorded and analyzed by a computer with a frequency of 100 data per minute. After surgery and before the drug was orally taken or injected, the blood pressure waveform of each dog was measured for two hours as the baseline. After the drug was orally taken or injected, the blood pressure waveform was continuously monitored for analyzing the hepatotoxicity induced by the drug, and blood samples were periodically taken from a tube inserted into the artery for determining the level of hepatotoxicuty.
The definition of parameter altered amount is: (the parameter value after taking the drug—the parameter value before taking the drug)/the parameter value before taking the drug *100%

CC(=O)Nc1ccc(O)cc1 [acetaminophen]
Time parameter Altered Amount T3 = cd [1]: T3 = cd = −20.0 second
Time parameter Altered Amount T4 = de [1]: T4 = de = 23.5 second
Time parameter Altered Amount T5 = ae [1]: T5 = ae = 7.9 second
Time parameter Altered amount T1 = ab [1]: T1 = ab = −16.7 second
oblique angle parameter Altered amount D1 = (Bb-Aa)/ab [1]: D1 = (Bb-Aa)/ab = 22.7 mmHg/sec.
oblique angle parameter Altered amount D2 = (Bb-Cc)/bc [1]: D2 = (Bb-Cc)/bc = −10.2 mmHg/sec.
oblique angle parameter Altered amount D3 = (Dd-Cc)/cd [1]: D3 = (Dd-Cc)/cd = 40.0 mmHg/sec.
oblique angle parameter Altered amount D4 = (Dd-Ee)/de [1]: D4 = (Dd-Ee)/de = −8.3 mmHg/sec.
oblique angle parameter Altered amount D5 = D1 + D2 [1]: D5 = D1 + D2 = 11.4 mmHg/sec.
oblique angle parameter Altered amount D6 = D3 + D4 [1]: D6 = D3 + D4 = 26.2 mmHg/sec.
highest altered amount (oblique angle parameter) (Code A dog, 500 mg/kg oral, before vs 12 hours after taking the drug, all other parameters lower): 40%
difference between the blood pressure waveforms before and after taking the drug (Code A dog, 500 mg/kg oral, before vs after taking the drug for 12 hours (FIG. 5 vs FIG. 6)): no significant difference
Oblique angle parameter D1 = (Bb-Aa)/ab [2]: D1 = (Bb-Aa)/ab = 2250 mmHg/sec.
Oblique angle parameter D2 = (Bb-Ee)/be [2]: D2 = (Bb-Ee)/be = 1383 mmHg/sec.
Oblique angle parameter D3 = (Ff-Ee)/ef [2]: D3 = (Ff-Ee)/ef = 420 mmHg/sec.
Oblique angle parameter D4 = (Ff-Gg)/fg [2]: D4 = (Ff-Gg)/fg = 311 mmHg/sec.
Oblique angle parameter D5 = D1 + D2 [2]: D5 = D1 + D2 = 3633 mmHg/sec.
Oblique angle parameter D6 = D3 + D4 [2]: D6 = D3 + D4 = 731 mmHg/sec.
Pressure parameter P1 = Aa [2]: P1 = Aa = 16 mmHg
Pressure parameter P2 = Bb [2]: P2 = Bb = 106 mmHg
Pressure parameter P3 = Ee [2]: P3 = Ee = 23 mmHg
Pressure parameter P4 = Ff [2]: P4 = Ff = 44 mmHg
Pressure parameter P5 = Gg [2]: P5 = Gg = 16 mmHg
Ratio parameter RA1 = A6/A5 [2]: RA1 = A6/A5 = 0.87
Ratio parameter RA2 = A5/A7 [2]: RA2 = A5/A7 = 0.53
Ratio parameter RA3 = A6/A7 [2]: RA3 = A6/A7 = 0.47
Ratio parameter RP1 = Ff/Bb [2]: RP1 = Ff/Bb = 0.42
Ratio parameter RT1 = ab/ag [2]: RT1 = ab/ag = 0.17
Ratio parameter RT2 = ae/ag [2]: RT2 = ae/ag = 0.42
Ratio parameter RT3 = af/ag [2]: RT3 = af/ag = 0.63
Superficial measure parameter A1 = AabB [2]: A1 = AabB = 2.44 sec. * mmHg
Superficial measure parameter A2 = BbeE [2]: A2 = BbeE = 2.58 sec. * mmHg
Superficial measure parameter A3 = EefF [2]: A3 = EefF = 1.68 sec. * mmHg
Superficial measure parameter A4 = FfgG [2]: A4 = FfgG = 2.70 sec. * mmHg
Superficial measure parameter A5 = A1 + A2 [2]: A5 = A1 + A2 = 5.02 sec. * mmHg
Superficial measure parameter A6 = A3 + A4 [2]: A6 = A3 + A4 = 4.38 sec. * mmHg
Superficial measure parameter A7 = A5 + A6 [2]: A7 = A5 + A6 = 9.40 sec. * mmHg
Time parameter T1 = ab [2]: T1 = ab = 0.04 second
Time parameter T2 = be [2]: T2 = be = 0.06 second
Time parameter T3 = ef [2]: T3 = ef = 0.05 second
Time parameter T4 = fg [2]: T4 = fg = 0.09 second
Time parameter T5 = ag [2]: T5 = ag = 0.24 second
number of parameter altered amounts exceeding 100% (Code B dog, 1,200 mg/kg subcutaneous injection, TABLE 8): six
Oblique angle parameter Altered amount D2 = (Bb-Ee)/be [3]: D2 = (Bb-Ee)/be = 349%
Oblique angle parameter Altered amount D3 = (Ff-Ee)/ef [3]: D3 = (Ff-Ee)/ef = 23%
Oblique angle parameter Altered amount D4 = (Ff-Gg)/fg [3]: D4 = (Ff-Gg)/fg = 677%
Pressure parameter Altered amount P1 = Aa [3]: P1 = Aa = −85%
Pressure parameter Altered amount P2 = Bb [3]: P2 = Bb = −25%
Pressure parameter Altered amount P3 = Ee [3]: P3 = Ee = −79%
Pressure parameter Altered amount P4 = Ff [3]: P4 = Ff = −65%
Pressure parameter Altered amount P5 = Gg [3]: P5 = Gg = −85%
Ratio parameter Altered amount RA1 = A6/A5 [3]: RA1 = A6/A5 = 123%
Ratio parameter Altered amount RA2 = A5/A7 [3]: RA2 = A5/A7 = 89%
Ratio parameter Altered amount RA3 = A6/A7 [3]: RA3 = A6/A7 = −35%
Ratio parameter Altered amount RP1 = Ff/Bb [3]: RP1 = Ff/Bb = −51%
Ratio parameter Altered amount RT1 = ab/ag [3]: RT1 = ab/ag = 143%
Ratio parameter Altered amount RT2 = ae/ag [3]: RT2 = ae/ag = 55%
Ratio parameter Altered amount RT3 = af/ag [3]: RT3 = af/ag = 85%
Superficial measure parameter Altered amount A1 = AabB [3]: A1 = AabB = −62%
Superficial measure parameter Altered amount A2 = BbeE [3]: A2 = BbeE = −85%
Superficial measure parameter Altered amount A3 = EefF [3]: A3 = EefF = −72%
Superficial measure parameter Altered amount A4 = FfgG [3]: A4 = FfgG = −95%
Superficial measure parameter Altered amount A5 = A1 + A2 [3]: A5 = A1 + A2 = −47%
Superficial measure parameter Altered amount A6 = A3 + A4 [3]: A6 = A3 + A4 = −61%
Superficial measure parameter Altered amount A7 = A5 + A6 [3]: A7 = A5 + A6 = −84%
Time parameter Altered amount T1 = ab [3]: T1 = ab = −20%
Time parameter Altered amount T2 = be [3]: T2 = be = −54%
Time parameter Altered amount T3 = ef [3]: T3 = ef = 0%
Time parameter Altered amount T4 = fg [3]: T4 = fg = −80%
Time parameter Altered amount T5 = ag [3]: T5 = ag = −64%
oblique angle parameter Altered amount D1 = (Bb-Aa)/ab [3]: D1 = (Bb-Aa)/ab = 162%
oblique angle parameter Altered amount D5 = D1 + D2 [3]: D5 = D1 + D2 = 211%
oblique angle parameter Altered amount D6 = D3 + D4 [3]: D6 = D3 + D4 = 92%
